From patent US9090651B2, “Helix 12 directed pharmaceutical products” (ENDORECHERCHE, INC., priority 2004, dated 2015)
“And” between values parts separate entries of the source, which are not always exact repeats. Identical values can stand only once. Like-named read-outs stand apart in the source and are kept apart here.

What was measured:
rat prostate = test: Systemic antiandrogenic activity, orchidectomized immature male rats with DHT implant: prostate weight; type: in vivo; settings: for inhibition in vivo at 0.5 mg: Rattus norvegicus, sc, 168 h, read-out: IN VIVO Rat s.c. (+DHT) Prostate % inhibition, s.c., 0.5 mg/animal once daily for 7 days, +DHT
Description: (§1) Immature male rats (Crl:CD(SD)Br) 22 to 24-day old were obtained from Charles-River, Inc. (St-Constant, Quebec, Canada) and housed up to 5 per cage in plastic bins in a temperature (23±1° C.)- and light (12 h light/day, lights on at 7 h15)-controlled environment. The rats were fed rodent chow and tap water ad libitum. The day following their arrival, the animals were orchidectomized (CX) under Isoflurane anesthesia via scrotal route and randomly assigned to groups of 5 animals.
(§2) Compounds were solubilized (when possible) in dimethylsulfoxide (DMSO, 10% final concentration) and administered as suspension in 0.4% methylcellulose. […] One group of animals received the antiandrogen Flutamide as reference. The animals were killed by cervical dislocation under isoflurane anesthesia on the 8th morning following castration. The ventral prostate and seminal vesicles were rapidly dissected and weighed.
(§3) W is the weight of the prostate or the seminal vesicle.

rat seminal vesicle = test: Systemic antiandrogenic activity, orchidectomized immature male rats with DHT implant: seminal vesicle weight; type: in vivo; settings: for inhibition in vivo at 0.5 mg: Rattus norvegicus, sc, 168 h, read-out: IN VIVO Rat s.c. (+DHT) SV % inhibition, s.c., 0.5 mg/animal once daily for 7 days, +DHT; for IN VIVO Rat s.c. (+DHT) SV % inhibition: 0.5 mg/animal once daily for 7 days
Description: as §1, §2, §3

[1] = test system: Shionogi mouse mammary carcinoma cells; test: Androgenic/antiandrogenic activity on DHT-stimulated Shionogi cell growth; type: cell-based
Human Androgen Receptor = target: T1, Human Androgen Receptor (Homo sapiens, UniProt P10275); test: Androgen receptor binding assay (hydroxylapatite, [3H]R1881, cytosol of transfected HEK-293 cells); settings: % RBA=100×IC50 R1881/IC50 compound, transfected cells
T1 sequence (P10275 1-920): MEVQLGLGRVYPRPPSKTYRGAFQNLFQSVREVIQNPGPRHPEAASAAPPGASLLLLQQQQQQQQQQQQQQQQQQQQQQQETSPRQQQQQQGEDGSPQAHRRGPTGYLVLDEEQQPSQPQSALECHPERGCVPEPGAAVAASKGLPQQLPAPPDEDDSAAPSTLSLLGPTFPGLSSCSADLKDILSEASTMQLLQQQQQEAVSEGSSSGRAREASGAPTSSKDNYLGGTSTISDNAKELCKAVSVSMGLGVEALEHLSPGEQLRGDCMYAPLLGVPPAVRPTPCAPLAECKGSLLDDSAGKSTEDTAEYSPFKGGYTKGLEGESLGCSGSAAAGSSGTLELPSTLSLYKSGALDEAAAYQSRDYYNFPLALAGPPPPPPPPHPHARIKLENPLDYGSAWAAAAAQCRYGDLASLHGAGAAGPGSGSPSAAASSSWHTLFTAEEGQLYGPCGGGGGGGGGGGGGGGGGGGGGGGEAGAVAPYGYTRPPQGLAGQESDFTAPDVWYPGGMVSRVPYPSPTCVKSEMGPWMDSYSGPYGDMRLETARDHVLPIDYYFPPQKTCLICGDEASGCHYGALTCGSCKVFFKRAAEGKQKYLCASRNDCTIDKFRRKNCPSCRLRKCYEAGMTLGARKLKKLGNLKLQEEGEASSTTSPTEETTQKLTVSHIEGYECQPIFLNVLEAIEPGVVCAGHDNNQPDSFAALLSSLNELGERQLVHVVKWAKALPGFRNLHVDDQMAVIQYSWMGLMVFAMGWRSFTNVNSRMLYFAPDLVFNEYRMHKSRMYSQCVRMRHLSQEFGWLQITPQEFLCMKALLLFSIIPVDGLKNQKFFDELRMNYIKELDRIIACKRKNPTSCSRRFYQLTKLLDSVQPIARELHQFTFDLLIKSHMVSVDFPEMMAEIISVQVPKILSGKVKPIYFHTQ

[2] = Mus musculus, read-out: Shionogi Antiandrogenic activity IC50 (nM), inhibition of DHT-stimulated Shionogi cell number
[3] = read-out: Shionogi Antiandrogenic activity IC50, inhibition of DHT-stimulated Shionogi cell number

Row | Structure (SMILES) | inhibition in vivo at 0.5 mg (rat prostate) [%] | inhibition in vivo at 0.5 mg (rat seminal vesicle) [%] | IC50 [1, 2] [nM] | Androgen Receptor Binding (%) Human RBA R1881 = 100 (Human Androgen Receptor) | further results
1 | CCC(NC1CCCC1)c1cccc(OCC[C@]23CCC4C5CCC(=O)C=C5C[C@@H](C)C4C2CC[C@@H]3O)c1 (mixture of isomers) [EM-6681] | 15 | 19 | 1.1 | 56% | –
2 | CCC(NC1CCCC1)c1cccc(OCC[C@]23CCC4C5CCC(=O)C=C5C[C@@H](C)C4C2CC[C@]3(C)O)c1 (mixture of isomers) [EM-6733] | 34 | – | 1.3 | 62% | IN VIVO Rat (+DHT) Prostate % inhibition (per os) (rat prostate; +DHT): 34%; IN VIVO Rat (+DHT) SV % inhibition (per os) (rat seminal vesicle; +DHT): 6%
3 | CCC(CC)N(C)C(CC)c1cccc(OCC[C@]23CCC4=C5CCC(=O)C=C5CCC4C2CC[C@@H]3O)c1 (mixture of isomers) [EM-6860] | 12 | 0 | 5.2 | 33% | –
4 | CCCC(NC(CC)CC)c1cccc(OCC[C@]23CCC4C5CCC(=O)C=C5C(C)(C)CC4C2CC[C@]3(C)O)c1 (mixture of isomers) [EM-7075] | 0 | 0 | 9.7 | 57% | –
5 | CCC(CC)N(C)C(CC)c1cccc(OCC[C@]23CCC4C5CCC(=O)C=C5C[C@@H](C)C4C2CC[C@]3(C)O)c1 (mixture of isomers) [EM-7127] | 20 | 0 | 0.91 | 128% | –
6 | CCCC(NC(CC)CC)c1cccc(OCC[C@]23CCC4C5CCC(=O)C=C5C[C@@H](C)C4C2CC[C@@H]3O)c1 (mixture of isomers) [EM-7128] | 41 | 2 | 0.75 | 120% | –
7 | CCCC(NC(CC)CC)c1cccc(OCC[C@]23CCC4C5CCC(=O)C=C5C[C@@H](C)C4C2CC[C@]3(C)O)c1 (mixture of isomers) [EM-7129] | 37 | 10 | 0.96 | 197% | –
8 | CCCC(NC(C)C)c1cccc(OCC[C@]23CCC4C(CCC5=CC(=O)CC[C@@]54C)C2CC[C@]3(C)O)c1 (mixture of isomers) [EM-7133] | 32 | 40 | 1.1 | 55% | –
9 | CCCC(NC(C)C)c1cccc(OCC[C@]23C=CC4=C5CCC(=O)C=C5CCC4C2CC[C@@]3(C)O)c1 (mixture of isomers) [EM-7164] | – | 0 | 6 | 27% | –
10 | C[C@@H]1CC2=CC(=O)CCC2C2CC[C@@]3(CCOc4cccc(C[S+]([O-])c5ccccc5)c4)C(CC[C@]3(C)O)C21 (mixture of isomers) [EM-7230] | 0 | 0 | – | 39% | –
11 | CC(NC1CCCCC1)c1cccc(OCC[C@]23CCC4C(CCC5C/C(=N\O)CC[C@@]54C)C2CC[C@@H]3O)c1 (stereo partly shown) [EM-6418] | 21 | 13 | 5 | 31% | IN VIVO Rat (+DHT) Prostate % inhibition (per os) (rat prostate; +DHT): 16%; IN VIVO Rat (+DHT) SV % inhibition (per os) (rat seminal vesicle; +DHT): 32%
12 | C[C@]1(O)CCC2C3CCC4=CC(=O)CCC4C3CC[C@@]21CCOc1cccc(CN2CCCCC2)c1 (stereo partly shown) [EM-6654] | 0 | – | 9.5 | 25% | –
13 | CCC(Cc1cccc(OCC[C@]23CCC4C5CCC(=O)C=C5CCC4C2CC[C@@H]3O)c1)NC1CCCC1 (stereo partly shown) [EM-6753] | 0 | – | 19 | 8.2% | –
14 | CCC(NC1CCCC1)c1cc(F)cc(OCC[C@]23CCC4C(CCC5CC(=O)CC[C@@]54C)C2CC[C@@H]3O)c1 (stereo partly shown) [EM-6761] | 33 | 0 | 1.2 | 141% | –
15 | CCC(NC1CCCCC1)c1cccc(OCC[C@]23CCC4C(CCC5=CC(=O)CC[C@@]54C)C2CC[C@@H]3O)c1 (stereo partly shown) [EM-6798] | 20 | 29 | – | 118% | IN VIVO Rat (+DHT) Prostate % inhibition (1 mg, po) (rat prostate; 1 mg, po, +DHT): 17%; IN VIVO Rat (+DHT) SV % inhibition (1 mg, po) (rat seminal vesicle; 1 mg, po, +DHT): 19%
16 | CCCC(NC(CC)CC)c1cccc(OCC[C@]23CCC4C(CCC5=CC(=O)CC[C@@]54C)C2CC[C@@H]3O)c1 (stereo partly shown) [EM-6841] | – | – | – | 139% | IN VIVO Rat s.c. (+DHT) Prostate % inhibition (rat prostate; s.c., 0.5 mg/animal once daily for 7 days, +DHT): 21%; IN VIVO Rat s.c. (+DHT) SV % inhibition (rat seminal vesicle; +DHT): 5%; IC50 [1, 3]: 0.1 nM
17 | CCC(CC)N(C)C(CC)c1cccc(OCC[C@]23CCC4C5CCC(=O)C=C5CCC4C2CC[C@]3(C)O)c1 (stereo partly shown) [EM-6902] | 2 | 0 | 0.06 | 107% | –
18 | CCC(NC(C)C)c1cccc(OCC[C@]23CCC4C(CCC5=CC(=O)CC[C@@]54C)C2CC[C@]3(C)O)c1 (stereo partly shown) [EM-6918] | 29 | 0 | – | 120% | –
19 | CCCC(NC(CC)CC)c1cccc(OCC[C@]23CCC4C(CCC5=CC(=O)CC[C@@]54C)C2CC[C@@H]3O)c1 (stereo partly shown) [EM-6928] | – | – | – | 146% and 181% | IN VIVO Rat s.c. (+DHT) SV % inhibition (rat seminal vesicle; +DHT): 0%; IC50 [1, 3]: 0.04 nM
20 | CCCC(NC(CC)CC)c1cccc(OCC[C@]23CCC4C5CCC(=O)C=C5C(C)(C)CC4C2CCC3=O)c1 (stereo partly shown) [EM-6993] | – | 0 | 16.4 | 35% | –
21 | CCC(CC)NC(CN(C)C)c1cccc(OCC[C@]23CCC4C(CCC5CC(=O)CC[C@@]54C)C2CC[C@@H]3O)c1 (stereo partly shown) [EM-7118] | 31 | 0 | 7.2 | 176% | –
22 | CCC(CC)NC(CC)c1cc(OCC[C@]23CCC4C(CCC5=CC(=O)CC[C@@]54C)C2CC[C@@H]3O)ccn1 (stereo partly shown) [EM-7136] | 27 | 35 | 0.2 | 92.7% and 93% | –
23 | CCC(NC1CCOCC1)c1cncc(OCC[C@]23CCC4C(CCC5=CC(=O)CC[C@@]54C)C2CCC3O)c1 (stereo partly shown) [EM-7176] | – | – | 7.2 | 16% | –
24 | COCC(NC1CCCCC1)c1cncc(OCC[C@]23CCC4C(CCC5=CC(=O)CC[C@@]54C)C2CCC3O)c1 (stereo partly shown) [EM-7184] | – | – | 7.4 | 57% | –
25 | CCCC(NC1CCCC1)c1cccc(OCC[C@]23CCC4C5CCC(=O)C=C5C[C@H](C)C4C2CC[C@]3(C)O)c1 (stereo partly shown) [EM-7218] | 35 | 0 | – | 112% | –
26 | CN(C)CC(NC1CCCCC1)c1cncc(OCC[C@]23CCC4C(CCC5=CC(=O)CC[C@@]54C)C2CCC3O)c1 (stereo partly shown) [EM-7221] | – | – | 11 | 20% | –
